Among the data in ChEMBL document CHEMBL1131722, “P1, P2'-linked macrocyclic amine derivatives as matrix metalloproteinase inhibitors” (Bioorg Med Chem Lett, 1999) are Ki values, retold here.

Assay [1] addresses Matrix metalloproteinase-9 (Homo sapiens, UniProt P14780). The experiment in a line: Inhibition of Matrix metalloprotease-9 (MMP-9).
The target in assay [2] is T1, Interstitial collagenase (Homo sapiens, UniProt P03956).
T1 sequence (P03956 whole entry): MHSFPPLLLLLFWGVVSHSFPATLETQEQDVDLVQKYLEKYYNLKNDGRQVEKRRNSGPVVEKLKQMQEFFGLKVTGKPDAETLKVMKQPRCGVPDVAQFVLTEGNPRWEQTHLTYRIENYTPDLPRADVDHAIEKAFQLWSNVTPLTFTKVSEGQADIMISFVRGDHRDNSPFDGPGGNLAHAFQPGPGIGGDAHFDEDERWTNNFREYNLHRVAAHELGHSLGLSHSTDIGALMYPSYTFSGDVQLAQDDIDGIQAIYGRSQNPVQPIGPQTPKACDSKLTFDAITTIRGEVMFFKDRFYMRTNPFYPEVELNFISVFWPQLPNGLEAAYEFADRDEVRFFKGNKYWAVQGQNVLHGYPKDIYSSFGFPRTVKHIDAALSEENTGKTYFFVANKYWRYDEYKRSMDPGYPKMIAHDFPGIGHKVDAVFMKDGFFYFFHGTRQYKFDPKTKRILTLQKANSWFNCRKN
Put plainly: Inhibition of Matrix metalloprotease-1 (MMP-1).

The target of assay [3] is Stromelysin-1 (Homo sapiens, UniProt P08254). Put plainly: Inhibition of Matrix metalloprotease-3 (MMP-3).
For assay [4], the target named is Neutrophil collagenase (Homo sapiens, UniProt P22894). Put plainly: Inhibition of Matrix metalloprotease-8 (MMP-8).

SMILES strings stand for the structures.

What is called Ki is the equilibrium dissociation constant of an inhibitor or competing ligand from its target.

Chain of Matrix metalloproteinase-9 (P14780 whole entry): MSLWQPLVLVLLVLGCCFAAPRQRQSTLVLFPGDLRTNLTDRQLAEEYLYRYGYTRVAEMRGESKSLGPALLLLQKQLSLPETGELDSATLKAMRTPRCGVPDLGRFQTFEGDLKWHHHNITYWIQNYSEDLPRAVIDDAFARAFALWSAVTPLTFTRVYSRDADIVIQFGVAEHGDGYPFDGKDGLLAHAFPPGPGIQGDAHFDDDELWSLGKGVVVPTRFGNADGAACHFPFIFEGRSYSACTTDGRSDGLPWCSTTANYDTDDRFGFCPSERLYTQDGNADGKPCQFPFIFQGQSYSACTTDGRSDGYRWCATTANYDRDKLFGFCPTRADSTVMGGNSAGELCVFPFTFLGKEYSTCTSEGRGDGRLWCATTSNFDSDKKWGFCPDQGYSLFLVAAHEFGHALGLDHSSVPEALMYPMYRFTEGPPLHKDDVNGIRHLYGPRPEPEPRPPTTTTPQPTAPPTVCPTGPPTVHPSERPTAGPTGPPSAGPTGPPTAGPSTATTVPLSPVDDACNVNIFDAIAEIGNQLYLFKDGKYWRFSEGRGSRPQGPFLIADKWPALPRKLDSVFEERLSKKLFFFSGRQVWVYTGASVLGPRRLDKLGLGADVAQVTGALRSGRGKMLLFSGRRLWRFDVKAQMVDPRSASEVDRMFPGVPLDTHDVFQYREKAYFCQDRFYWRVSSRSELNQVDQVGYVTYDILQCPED
Chain of Stromelysin-1 (P08254 whole entry): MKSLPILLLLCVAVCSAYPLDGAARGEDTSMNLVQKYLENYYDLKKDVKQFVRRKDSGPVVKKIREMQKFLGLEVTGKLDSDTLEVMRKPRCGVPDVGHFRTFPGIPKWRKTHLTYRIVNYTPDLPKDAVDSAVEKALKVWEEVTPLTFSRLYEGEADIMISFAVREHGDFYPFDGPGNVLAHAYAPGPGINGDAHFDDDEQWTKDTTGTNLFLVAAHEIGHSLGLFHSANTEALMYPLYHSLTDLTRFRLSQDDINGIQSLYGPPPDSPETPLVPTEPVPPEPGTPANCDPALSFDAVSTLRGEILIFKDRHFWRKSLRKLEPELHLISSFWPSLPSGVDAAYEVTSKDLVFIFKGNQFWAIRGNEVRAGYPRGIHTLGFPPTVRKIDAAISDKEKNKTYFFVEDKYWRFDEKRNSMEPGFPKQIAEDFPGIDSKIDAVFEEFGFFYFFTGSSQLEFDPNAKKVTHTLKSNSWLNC
Chain of Neutrophil collagenase (P22894 whole entry): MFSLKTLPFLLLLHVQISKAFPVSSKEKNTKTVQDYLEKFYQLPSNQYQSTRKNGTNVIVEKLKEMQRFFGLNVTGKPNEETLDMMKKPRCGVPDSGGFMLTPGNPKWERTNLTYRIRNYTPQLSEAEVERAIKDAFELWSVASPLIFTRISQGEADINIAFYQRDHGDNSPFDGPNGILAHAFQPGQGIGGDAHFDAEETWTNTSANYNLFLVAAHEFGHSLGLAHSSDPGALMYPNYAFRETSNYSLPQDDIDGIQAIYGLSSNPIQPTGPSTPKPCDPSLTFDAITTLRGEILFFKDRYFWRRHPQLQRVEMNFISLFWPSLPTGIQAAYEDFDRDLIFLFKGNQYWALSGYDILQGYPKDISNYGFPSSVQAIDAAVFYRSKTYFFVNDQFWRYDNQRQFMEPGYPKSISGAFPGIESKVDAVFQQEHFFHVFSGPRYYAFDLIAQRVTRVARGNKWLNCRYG

Take `CNC(=O)[C@@H]1CCCN(S(=O)(=O)c2ccccc2)CCCCO[C@H](C(=O)NO)[C@@H](CCCc2ccccc2)C(=O)N1`: the Ki in assay [1] amounted to 2 nM; in assay [2] it was 110 nM.
As for `CNC(=O)[C@@H]1CCCN(C(C)=O)CCCCO[C@H](C(=O)NO)[C@@H](CCCc2ccccc2)C(=O)N1`, the values for the Ki in assay [1], in assay [3] and in assay [2] were 6 nM, 38 nM and 248 nM, respectively.
For the molecule `CNC(=O)[C@@H]1CCCN(C(C)=O)CC(C)CO[C@H](C(=O)NO)[C@@H](CCCc2ccccc2)C(=O)N1` (some centres not stated), the Ki in assay [4] came out at 7 nM; in assay [1] it was 13 nM; in assay [3], 267 nM; in assay [2] it was 440 nM.
Take `CNC(=O)[C@@H]1CCCN(C(=O)OC(C)(C)C)CCCCO[C@H](C(=O)NO)[C@@H](CCCc2ccccc2)C(=O)N1`: the Ki in assay [4] is 13 nM; in assay [1], 19 nM; in assay [3], 373 nM; in assay [2], 1070 nM.
Taken in the same sequence, the figures for `CNC(=O)[C@@H]1CCCNCCCCO[C@H](C(=O)NO)[C@@H](CCCc2ccccc2)C(=O)N1` were 4 nM, 21 nM, 265 nM and 496 nM.
